Holding throughout (type): biochemical
Test [1] has as its target T1, SHP-2 (Homo sapiens, UniProt Q06124).
T1 construct: using the catalytic core of a human recombinant PTP as the enzyme; made in house
T1 sequence (Q06124 247-517 limits assumed): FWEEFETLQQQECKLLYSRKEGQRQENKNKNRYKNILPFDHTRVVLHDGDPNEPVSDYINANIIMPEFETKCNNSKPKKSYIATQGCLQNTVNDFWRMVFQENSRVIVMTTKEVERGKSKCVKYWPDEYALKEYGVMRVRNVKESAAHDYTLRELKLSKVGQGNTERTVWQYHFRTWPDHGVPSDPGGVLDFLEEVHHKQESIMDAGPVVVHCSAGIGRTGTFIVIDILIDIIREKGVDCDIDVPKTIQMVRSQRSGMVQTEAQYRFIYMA
The experiment in a line: PTP Enzyme Assay (DiFMUP), SHP-2. Particulars: catalytic core of human recombinant PTP; 20 μM DiFMUP; 30 minutes at room temperature; read-out: IC50 value in respect of SHP-2. As for the experimental part:
(§1) The PTP Enzyme Assay aims at determining the extent of inhibition of PTPs, e.g. of PTP1B, SHP-1, SHP-2, or GLEPP-1 in the presence of a test compound of formula (I). The inhibition is illustrated by IC50 values which denote the concentration of test compound necessary to achieve an inhibition of 50% of said PTP's using the following concentration of the PTP substrate DiFMUP: • 5 μM DiFMUP for PTP1B; • 20 μM DiFMUP for SHP-1 and SHP-2; • 30 μM DiFMUP for GLEPP-1. a) PTPs Cloning […]
(§2) Assays were performed in a 96 well plate format, using the catalytic core of a human recombinant PTP as the enzyme and 6,8-DiFluoro-4-MethylUmbelliferyl Phosphate (DiFMUP, Molecular Probes, D-6567) as a substrate. […] The reaction ran for 30 minutes at room temperature before reading the fluorescence intensity (integral or intensity) on a Perkin-Elmer Victor 2 spectrofluorimeter (excitation of 6,8-difluoro-7-hydroxy coumarin is at 355 nm, the emission at 460 nm, for 0.1 s). The percentage of inhibition is determined by measuring the relative fluorescence ion absence of a test compound (PTP inhibitor), i.e. with the solvent alone (5% DMSO). The IC50 values for inhibition were determined in triplicates.

For test [2], the target named is T2, GLEPP-1 (Homo sapiens, UniProt Q16827).
T2 construct: using the catalytic core of a human recombinant PTP as the enzyme; made in house
T2 sequence (Q16827 938-1195 limits assumed): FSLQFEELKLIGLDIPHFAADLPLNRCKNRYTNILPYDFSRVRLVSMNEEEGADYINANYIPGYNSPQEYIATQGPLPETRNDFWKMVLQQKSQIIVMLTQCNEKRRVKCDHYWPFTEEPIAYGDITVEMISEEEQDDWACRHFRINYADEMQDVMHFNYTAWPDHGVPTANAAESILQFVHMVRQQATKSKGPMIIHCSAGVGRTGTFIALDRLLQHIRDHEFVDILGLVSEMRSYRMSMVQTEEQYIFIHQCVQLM
The experiment in a line: PTP Enzyme Assay (DiFMUP), GLEPP-1. Particulars: catalytic core of human recombinant PTP; 30 μM DiFMUP; 30 minutes at room temperature; read-out: IC50 value in respect of GLEPP-1. As for the experimental part:
as §1, §2

Test [3] has as its target T3, PTP1B (Homo sapiens, UniProt P18031).
T3 construct: using the catalytic core of a human recombinant PTP as the enzyme; made in house
T3 sequence (P18031 3-277 limits assumed): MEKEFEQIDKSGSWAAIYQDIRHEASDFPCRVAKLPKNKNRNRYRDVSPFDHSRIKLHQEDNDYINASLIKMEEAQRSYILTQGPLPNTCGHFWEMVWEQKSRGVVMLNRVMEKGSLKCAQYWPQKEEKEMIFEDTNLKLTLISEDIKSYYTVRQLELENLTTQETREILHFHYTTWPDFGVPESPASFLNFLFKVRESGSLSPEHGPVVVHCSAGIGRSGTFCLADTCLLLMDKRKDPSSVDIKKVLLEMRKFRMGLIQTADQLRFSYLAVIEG
The experiment in a line: PTP Enzyme Assay (DiFMUP), PTP1B. Particulars: catalytic core of human recombinant PTP; 5 μM DiFMUP; 30 minutes at room temperature; read-out: IC50 value in respect of PTP1B. On the procedure:
The PTP Enzyme Assay aims at determining the extent of inhibition of PTPs, e.g. of PTP1B, SHP-1, SHP-2, or GLEPP-1 in the presence of a test compound of formula (I). The inhibition is illustrated by IC50 values which denote the concentration of test compound necessary to achieve an inhibition of 50% of said PTP's using the following concentration of the PTP substrate DiFMUP: • 5 μM DiFMUP for PTP1B; • 20 μM DiFMUP for SHP-1 and SHP-2; • 30 μM DiFMUP for GLEPP-1. a) PTPs Cloning
The cloning and expression of the catalytic domain e.g. of PTP1B, may be performed as described in J. Biol. Chem. 2000, 275(13), pp 9792-9796. […]
as §2

The target in test [4] is T4, SHP-1 (Homo sapiens, UniProt P29350).
T4 construct: using the catalytic core of a human recombinant PTP as the enzyme; made in house
T4 sequence (P29350 244-515 limits assumed): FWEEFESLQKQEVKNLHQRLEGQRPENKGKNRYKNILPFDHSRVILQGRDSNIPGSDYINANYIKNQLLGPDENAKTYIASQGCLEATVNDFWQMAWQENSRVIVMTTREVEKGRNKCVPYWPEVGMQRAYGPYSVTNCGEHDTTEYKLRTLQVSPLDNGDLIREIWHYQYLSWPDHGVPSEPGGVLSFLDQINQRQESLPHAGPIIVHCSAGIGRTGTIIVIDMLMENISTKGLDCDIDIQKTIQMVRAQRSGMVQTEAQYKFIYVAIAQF
The test can be described thus: PTP Enzyme Assay (DiFMUP), SHP-1. Conditions: catalytic core of human recombinant PTP; 20 μM DiFMUP; 30 minutes at room temperature; read-out: IC50 value in respect of SHP-1. As for the experimental part: as §1, §2

SMILES strings stand for the structures. pIC50: −log10 of the molar value.

Turning to `O=C(NCc1ccc(Oc2ccccc2)cc1)c1ccc(CN(C(=O)CCC2CCCC2)c2ccc(O)c(C(=O)O)c2)cc1` [Example 1, 5-[(3-cyclopentylpropanoyl)(4-{[(4-phenoxybenzyl)amino]carbonyl}benzyl)amino]-2-hydroxybenzoic acid], the pIC50 in test [1] was 5.72; in test [2], 5.92; in test [3] it was 6.00; in test [4], 5.40.

The pIC50 is −log10 of the IC50, conventionally taken in molar units.

Values taken from patent US7365225B2, “Aryl dicarboxamides” (Laboratoires Serono SA, priority 2003, dated 2008).
